Test results from patent US20100010039A1, “POLYMORPHIC CRYSTAL FORM OF A INDAN-2-YLAMINO-HYDROXYETHYL-QUINOLINONE MALEATE DERIVATIVE AS BETA-ADRENOCEPTOR AGONIST” (priority 2006, published 2010).
Structures can show the parent of a compound that is named as a salt. Marks after values point to notes of the source that are not given here.

Legend:
Format in all cases: physicochemical
[1] = Stress testing: 1 month, 60° C. open container, relative humidity <30% (physico-chemical stability comparison); conditions: for Assay (HPLC), 1 month / Related substances (HPLC), 1 month / TG (moisture content), 1 month / XRPD (identity of the material), 1 month: after 1 month, 60° C. open, R.H. <30%; for Assay (HPLC), 1 month / Related substances (HPLC), 1 month / TG (moisture content), 1 month / XRPD (identity of the material), 1 month / Related substances (HPLC), Initial / Assay (HPLC), Initial / TG (moisture content), Initial / XRPD (identity of the material), Initial / Proneness to degradation on storage (in words): maleate; for Related substances (HPLC), Initial / Assay (HPLC), Initial / TG (moisture content), Initial / XRPD (identity of the material), Initial: before storage; for Related substances (HPLC), Initial: Qalpha value from release analysis, Amorphous value from recontrol analysis; for Assay (HPLC), Initial / TG (moisture content), Initial / XRPD (identity of the material), Initial: release / recontrol analysis; for Proneness to degradation on storage (in words): summary of both stress tests (Tables 5 and 6), 1 month, 60° C.
Protocol: (§1) Samples of crystal form Qalpha and amorphous (R)-5-[2-(5,6-diethyl-indan-2-ylamino)-1-hydroxyethyl]-8-hydroxy-1H-quinolin-2-one maleate are stress tested before and after storage for 1 month to provide for physico-chemical stability comparison.
(§2) In a first test the samples are stored at 60° C. in an open container with a relative humidity <30%. In a second test the samples are stored at 60° C. in an open container with a relative humidity of about 75%. The results are shown in Tables 5 and 6 below respectively.
(§3) The tests determine (a) purity and (b) assay as determined by high performance liquid chromatography (HPLC) using HP1100 from Agillent with a YMC-packs ODS-AQ 3 μm column; (c) identity of the material as determined by the X-ray diffraction pattern measured using a SCINTAG™ X-ray diffractometer with a CuK alpha radiation source (45 kV, 40 mA); and (d) moisture content determined using a TGA851e Mettler Toledo STAR System thermogravimetry analysis balance with nitrogen flow 50 ml/min.

[2] = Stress testing: 1 month, 60° C./75% RH open container (physico-chemical stability comparison); conditions: for XRPD (identity of the material), 1 month / Assay (HPLC), 1 month / Related substances (HPLC), 1 month / TG (moisture content), 1 month: after 1 month, 60° C./75% RH open; for Assay (HPLC), 1 month / Related substances (HPLC), 1 month / TG (moisture content), 1 month / Assay (HPLC), Initial / Related substances (HPLC), Initial / TG (moisture content), Initial / XRPD (identity of the material), Initial: maleate; for Assay (HPLC), Initial / Related substances (HPLC), Initial / TG (moisture content), Initial / XRPD (identity of the material), Initial: before storage, release / recontrol analysis
Protocol: as §1, §2, §3

[3] = Solubility behaviour / kinetic of dissolution in comparison to the amorphous part

SMILES | Assay (HPLC), 1 month [1] | Related substances (HPLC), 1 month [1] | TG (moisture content), 1 month [1] | XRPD (identity of the material), 1 month [1] | Related substances (HPLC), Initial [1] | Assay (HPLC), Initial [1] | TG (moisture content), Initial [1] | XRPD (identity of the material), Initial [1] | XRPD (identity of the material), 1 month [2] | Assay (HPLC), 1 month [2] | Related substances (HPLC), 1 month [2] | TG (moisture content), 1 month [2] | Assay (HPLC), Initial [2] | Related substances (HPLC), Initial [2] | TG (moisture content), Initial [2] | XRPD (identity of the material), Initial [2] | other results
CCc1cc2c(cc1CC)CC(NC[C@H](O)c1ccc(O)c3[nH]c(=O)ccc13)C2 [Amorphous, (R)-5-[2-(5,6-diethyl-indan-2-ylamino)-1-hydroxyethyl]-8-hydroxy-1H-quinolin-2-one maleate, reference compound] | 91.5% | 4.3% | 0.74% | Amorphous | 0.22%# | 99.7%# | 1.8%# | Amorphous# | Qalpha | 98.9% | 0.73% | 0.23% | 99.7%# | 0.22%# | 1.8%# | Amorphous# | Proneness to degradation on storage (in words) ([1]; listed as amorphous material): more prone to degradation than Qalpha; Conversion of solid form on storage (in words) ([2]; stored at 60° C./75% R.H.): converts to crystal form Qalpha
CCc1cc2c(cc1CC)CC(NC[C@H](O)c1ccc(O)c3[nH]c(=O)ccc13)C2 [Qalpha, (R)-5-[2-(5,6-diethyl-indan-2-ylamino)-1-hydroxyethyl]-8-hydroxy-1H-quinolin-2-one maleate] | 98.8% | 0.25% | <0.05% | Qalpha | 0.23%* | 100.2%* | 0.07%* | Qalpha* | Qalpha | 99.5% | 0.26% | <0.05% | 100.2%* | 0.23%* | 0.07%* | Qalpha* | Changes after storage (in words) ([1]; storage for 1 month, both stress tests): No significant changes; Proneness to degradation on storage (in words) ([1]; listed as crystal form Qalpha): less prone to degradation or conversion than the amorphous form on storage; Solubility behaviour: kinetic of dissolution (in words) [3]: lower kinetic of dissolution
